In test [1] the test system is methicillin-sensitive Staphylococcus aureus (MSSA), Pseudomonas aeruginosa and Klebsiella pneumoniae. In words: Confocal bacterial labelling, UBI-2 vs UBI-3 on a panel of bacteria. As to conditions: fluorescence normalised to UBI-2, mean ± SEM, n ≥ 3. It counts as cell-based. The method, then:
Fig. 3 UBI-3 retains specificity and sensitivity for bacterial labelling. […] Panels show bacteria labelled with either UBI-2 or UBI-3 with quantification of fluorescence (values normalised to UBI-2) (Bars represent mean, error bars represent standard error of mean, n ≥ 3, ns = not significant, scale bar = 10 μm). (B) Quantification from confocal images of UBI-3 (10 μM) imaging a panel of bacteria (statistical analyses shown compared to unlabelled bacteria, n ≥ 3 for each bacteria, *** = p < 0.001). […] [MRSA: methicillin-resistant Staphylococcus aureus, MSSA: methicillin-sensitive Staphylococcus aureus]. […]
(§1) Confocal Analysis and Fluorescence Quantification: 8-Well Lab-Tek II Confocal Chambers (VWR, PA, USA) were coated in fibronectin (for neutrophil experiments) or poly-d-lysine (for bacteria) at 37 °C for 20 minutes, then washed in PBS prior to bacterial innoculation. […] Exposure to 488 nm light was limited to 5% of the maximum laser power in order to minimize toxicity. ‘Green’ fluorescence (for FAM and NBD) was excited with a dedicated 488 nm line and emitted light detected with meta detector (500-530 nM).
(§2) Syto nuclear and dyes were excited with a dedicated 543 nm line, and emitted light detected with meta detector (570-610 nM). Fields of view were chosen based on the counterstain and at least three fields of view were recorded for each condition. […]

In test [2] the test system is P. aeruginosa. The experiment in a line: Confocal labelling of bacteria in the presence of human ARDS BALF. It counts as cell-based. As to conditions: 10 μM, n = 3 PBS, n = 5 ARDS, p < 0.001.
Description: To determine the ability of UBI-3 to image bacteria in the continued presence of a complex inflammatory environment, bacteria were labelled with UBI-3 in the presence of broncho-alveolar lavage fluid (BALF) retrieved from ventilated ICU patients with Acute Respiratory Distress Syndrome (ARDS). ARDS BALF was utilised as ARDS is a severe life threatening pulmonary syndrome, characterized by a massive proteolytic and oxidative inflammatory environment within the distal alveolar region.[14] […] To design out susceptible amino acid cleavage points, a number of modifications were made (Table 1) and the functional consequences assessed. […]
as §1, §2

“Also recorded” adds a separate entry of the source. Non-standard residues stand in square brackets, D forms with d. Residues, ends and D or L forms follow the SMILES beside them. *: point of attachment. NBD = O=[N+]([O-])c1ccc(*)c2nonc12; Nle = CCCC[C@H](N)C(=O)O; Ahx = NCCCCCC(=O)O

For the compound `CCCC[C@H](NC(=O)[C@H](CCCNC(=N)N)NC(=O)[C@H](CCCNC(=N)N)NC(=O)[C@H](CCCCN)NC(=O)[C@H](C)NC(=O)[C@H](CCCNC(=N)N)NC(=O)CNC(=O)[C@@H](NC(=O)CCCCCNc1ccc([N+](=O)[O-])c2nonc12)[C@@H](C)O)C(=O)N[C@@H](CCC(N)=O)C(=O)N[C@@H](Cc1ccc(O)cc1)C(=O)N[C@@H](CC(N)=O)C(=O)N[C@@H](CCCNC(=N)N)C(=O)N[C@@H](CCCNC(=N)N)C(N)=O` [UBI-3] ({NBD-Ahx}-TGRAKRR[Nle]QYNRR-NH2), the “bacterial labelling, Met vs Nle variant” value in test [1] was “retained bacterial labelling; also recorded: same fluorescence intensity”. Further, the “fluorescent labelling intensity of bacteria in ARDS BALF compared to PBS” value in test [2] is listed as “significant reduction in the fluorescent labelling intensity; also recorded: significantly reduced intensity when compared to PBS”.

The values are drawn from paper PMC5947527 (Chemical Science, 2015).
